The subject of experiment [1] is B16-F10. Kind of experiment: Antiproliferative activity against mouse B16-F10 cells incubated for 48 hrs by MTT assay. The experiment is classed as functional, cell-based. Conditions: B16-F10, 48 h. For orientation: Tetrazolium assays rely on reduction of a dye to a coloured formazan, in cell work by metabolically active cells.
For a further experiment, the system named is HepG2. Description: Antiproliferative activity against human HepG2 cells incubated for 48 hrs by MTT assay. Type of experiment: functional, cell-based. The note with it: HepG2, 48 h.
Another experiment concerns MCF7. Kind of experiment: Antiproliferative activity against human MCF7 cells incubated for 48 hrs by MTT assay. The experiment is classed as functional, cell-based. Conditions: MCF7, 48 h.
A further experiment deals with A549. Description: Antiproliferative activity against human A549 cells incubated for 48 hrs by MTT assay. Type of experiment: functional, cell-based. The note with it: A549, 48 h.
For experiment [2], the system named is B16-F10. Kind of experiment: Inhibition of cell migration in mouse B16-F10 cells assessed as recovery of scratch area at 50 nM incubated for 24 hrs by wound healing assay (reference value: 72.97 %). Type of experiment: functional. Set-up: scale not given: the % may be the effect or the level left.
Experiment [3] relates to B16-F10. Kind of experiment: Antitumor activity against mouse B16-F10 cells implanted in C57BL/6 mouse at 10 mg/kg measured after 10 days relative to control. Conditions: B16-F10, 240 h, time 10 day, read-out: TGI. Type of experiment: functional.

One may read the pIC50 as the negative decadic logarithm of the IC50, by convention in mol/L.

The structures appear in SMILES notation. pIC50: −log10 of the molar value.

Consider `COc1cc(Nc2nc(-c3ccc4c(cnn4C)c3)nc3ccccc23)cc(OC)c1OC`, for which the pIC50 was 5.75 with B16-F10 [1], 5.50 in the experiment with HepG2, 5.48 in the experiment on MCF7 and 5.19 in the experiment on A549.

For `COc1ccc(-c2nccc(C(=O)Nc3cc(OC)c(OC)c(OC)c3)n2)cc1OC`, the pIC50 in the experiment on B16-F10 [1], in the experiment on HepG2, with MCF7 and with A549 was less than 4.30 throughout.

On to `COc1ccc(-c2nccc(Nc3cc(OC)c(OC)c(OC)c3)n2)cn1`, for which the negative logarithm of the IC50 (pIC50) was less than 4.30 in the experiment on B16-F10 [1], less than 4.30 in the experiment on HepG2, less than 4.30 with MCF7 and 5.51 with A549.

Turning to `COc1cc(Nc2nc(-c3ccc(C)cc3)nc3ccccc23)cc(OC)c1OC`, the pIC50 in the experiment with B16-F10 [1] was less than 4.30; in the experiment on HepG2, 5.61; in the experiment with MCF7, less than 4.30; in the experiment with A549, 5.74.

With `COc1cc(Nc2ccnc(-c3cc(OC)c(OC)c(OC)c3)n2)cc(OC)c1OC`, the pIC50 in the experiment on B16-F10 [1], with HepG2, with MCF7 and with A549 was less than 4.30 in each case.

As for `COc1cc(Nc2nc(-c3ccc(F)cc3)nc3ccccc23)cc(OC)c1OC`, the pIC50 with B16-F10 [1], in the experiment on HepG2, in the experiment on MCF7 and in the experiment on A549 was less than 4.30 each time.

As to `COc1cc(NC(=O)c2ccnc(-c3ccc4c(c3)OCCO4)n2)cc(OC)c1OC`, the pIC50 in the experiment with B16-F10 [1] was less than 4.30; in the experiment with HepG2 it was less than 4.30; in the experiment on MCF7, less than 4.30; with A549, 5.51.

Consider `COc1cc(Nc2ccnc(-c3ccc4c(ccn4C)c3)n2)cc(OC)c1OC`, for which the pIC50 in the experiment on B16-F10 [1] was 5.74; in the experiment with HepG2 it was 5.31; in the experiment on MCF7 it was 5.28; with A549, 5.64.

On to `COc1ccc(-c2nccc(Nc3cc(OC)c(OC)c(OC)c3)n2)cc1`, for which the pIC50 in the experiment with B16-F10 [1] was 5.57; with HepG2 it was 5.91; in the experiment with MCF7, 5.14; in the experiment with A549, 5.65.

Consider `COc1cc(NC(=O)c2ccnc(-c3ccc(C)cc3)n2)cc(OC)c1OC`, for which the negative-log IC50 (pIC50) is less than 4.30 in the experiment with B16-F10 [1], less than 4.30 with HepG2, less than 4.30 in the experiment on MCF7 and 5.22 in the experiment on A549.

For `COc1cc(Nc2ccnc(-c3ccccc3)n2)cc(OC)c1OC`, the pIC50 with B16-F10 [1] was 5.14; in the experiment with HepG2 it was 5.04; with MCF7, less than 4.30; in the experiment on A549 it was 5.39.

Regarding `COc1cc(Nc2nc(-c3cccc4c3ccn4C)nc3ccccc23)cc(OC)c1OC`, the negative-log IC50 (pIC50) in the experiment with B16-F10 [1] was 6.11; in the experiment on HepG2, 6.26; in the experiment on MCF7 it was 6.06; in the experiment on A549, 5.87.

On to `COc1cc(Nc2nc(-c3cc(OC)c(OC)c(OC)c3)nc3ccccc23)cc(OC)c1OC`, for which the pIC50 in the experiment on B16-F10 [1] was 6.88; in the experiment with HepG2 it was 6.11; with MCF7, 5.53; with A549, 6.40.

For `COc1cc(Nc2ccnc(-c3ccc4c(cnn4C)c3)n2)cc(OC)c1OC`, the negative logarithm of the IC50 (pIC50) was 5.73 in the experiment on B16-F10 [1], 5.84 with HepG2, 5.95 with MCF7 and 6.22 in the experiment on A549.

Regarding `COc1ccc(-c2nc(Nc3cc(OC)c(OC)c(OC)c3)c3ccccc3n2)cc1OC`, the pIC50 with B16-F10 [1] was 6.48; with HepG2 it was less than 4.30; with MCF7, less than 4.30; in the experiment on A549, 5.25.

As to `COc1cc(NC(=O)c2ccnc(-c3ccccc3)n2)cc(OC)c1OC`, the pIC50 in the experiment with B16-F10 [1] was less than 4.30; in the experiment on HepG2 it was 5.63; in the experiment on MCF7, less than 4.30; in the experiment with A549, 5.27.

Consider `COc1cc2c(c(OC)c1OC)-c1ccc(OC)c(=O)cc1[C@@H](NC(C)=O)CC2` [COLCHICINE], for which the negative-log IC50 (pIC50) in the experiment with B16-F10 [1] was 7.10; with HepG2, 7.42; in the experiment on MCF7, 7.51; in the experiment on A549, 6.29. For the same compound, in the experiment on B16-F10 [2], the Activity worked out at 33.68%. For the same compound, in the experiment with B16-F10 [3], the inhibition in vivo at 10 mg/kg is 72.8%.

On to `COc1cc(Nc2ccnc(-c3cccc4c3cnn4C)n2)cc(OC)c1OC`, for which the pIC50 in the experiment with B16-F10 [1] was 5.34; with HepG2, 5.23; in the experiment on MCF7 it was 5.15; in the experiment on A549, 5.26.

`COc1cc(NC(=O)c2ccnc(-c3cccc4c3ccn4C)n2)cc(OC)c1OC`: the pIC50 was 5.64 with B16-F10 [1], 5.96 in the experiment with HepG2, 5.72 with MCF7 and 5.51 in the experiment on A549.

As for `COc1ccc(-c2nc(Nc3cc(OC)c(OC)c(OC)c3)c3ccccc3n2)cc1`, the pIC50 in the experiment on B16-F10 [1], in the experiment on HepG2, in the experiment on MCF7 and with A549 was less than 4.30 in each case.

Turning to `COc1cc(Nc2nc(-c3ccccc3)nc3ccccc23)cc(OC)c1OC`, the negative logarithm of the IC50 (pIC50) in the experiment on B16-F10 [1] was 6.05; with HepG2, 6.09; in the experiment with MCF7, 5.31; in the experiment on A549 it was 5.40.

Regarding `COc1cc(NC(=O)c2ccnc(-c3ccc(C(F)(F)F)cc3)n2)cc(OC)c1OC`, the pIC50 in the experiment with B16-F10 [1], in the experiment on HepG2, in the experiment with MCF7 and with A549 was less than 4.30 each time.

For `COc1cc(Nc2ccnc(-c3ccc(C)cc3)n2)cc(OC)c1OC`, the pIC50 in the experiment on B16-F10 [1] is 5.12; with HepG2 it was 5.73; in the experiment on MCF7, 5.24; with A549, 5.67.

As to `COc1cc(Nc2ccnc(-c3ccc(C#N)cc3)n2)cc(OC)c1OC`, the pIC50 was less than 4.30 in the experiment on B16-F10 [1], 5.36 in the experiment on HepG2, less than 4.30 in the experiment on MCF7 and 5.32 in the experiment with A549.

`COc1cc(Nc2ccnc(-c3ccc(F)cc3)n2)cc(OC)c1OC`: the pIC50 in the experiment with B16-F10 [1] was 5.08; with HepG2 it was 5.10; with MCF7 it was less than 4.30; in the experiment on A549 it was 5.19.

As for `COc1cc(Nc2ccnc(-c3ccc(O)c(C)c3)n2)cc(OC)c1OC`, the negative logarithm of the IC50 (pIC50) with B16-F10 [1] was 5.30; with HepG2 it was 5.19; in the experiment with MCF7 it was 5.17; in the experiment with A549, 5.97.

The values are drawn from ChEMBL document CHEMBL6096652, “Design, synthesis and anti-tumor evaluation of novel pyrimidine and quinazoline analogues” (Eur J Med Chem, 2025).
